The values that follow come from ChEMBL document CHEMBL5036348, “Identification and evaluation of 4-anilinoquin(az)olines as potent inhibitors of both dengue virus (DENV) and Venezuelan equine encephalitis virus (VEEV)” (Bioorg Med Chem Lett, 2021).

Some results are limits rather than exact numbers.

For orientation: EC50 means the concentration needed to bring the measured effect to its halfway point. By CC50 is commonly meant the concentration that lowers cell viability or growth by half.

Data set [1] relates to dengue virus type 2. The experiment in a line: Antiviral activity against DENV2 New Guinea C strain infected in human Huh7 cells assessed as reduction in viral infection measured after 48 hrs post infection by renilla luciferase assay relative to control. The class given is functional, organism-based. Conditions: Huh-7, 48 h.
Data set [2] can be described thus: Cytotoxicity against DENV infected human Huh-7 cells assessed as reduction in cell viability by alamar blue assay. In kind it is cell-based. The note with it: DENV-infected Huh-7 cells. For orientation: The colour change of resazurin is a common sign of viable cells or microbes.
A short description of data set [3]: Cytotoxicity against Venezuelan equine encephalitis virus TC-83 strain infected human U-87 MG cells assessed as reduction in cell viability by alamar blue assay. The class given is cell-based, U-87MG ATCC.
For data set [4], the system named is Venezuelan equine encephalitis virus. The experiment in a line: Antiviral activity against Venezuelan equine encephalitis virus TC-83 strain infected in human U-87 MG cells assessed as reduction in viral infection measured after 18 hrs post infection by Nano luciferase assay relative to control. The class given is functional, organism-based. Conditions: TC-83, U-87 MG.

`C#Cc1cccc(Nc2ncnc3cc(OC)c(OC)cc23)c1`: the EC50 in data set [1] stood at 6.5 µM; in data set [4], 10 µM. Besides, the CC50 in data set [2] and in data set [3] was > 10 µM each time.
In the case of `C#Cc1cccc(Nc2c(C#N)cnc3cc(OC)c(OC)cc23)c1`, the concentration giving a half-maximal response (EC50) in data set [1] was 3 µM; in data set [4], > 10 µM. Also, the CC50 in data set [2] and in data set [3] was > 10 µM in each case.
Regarding `C#Cc1cccc(Nc2ccnc3ccc(OC)cc23)c1`, the EC50 in data set [1] was 4.3 µM; in data set [4], > 10 µM. Further, the CC50 in data set [2] and in data set [3] was > 10 µM in each case.
For the molecule `C#Cc1cccc(Nc2ccnc3cc(OC)ccc23)c1`, the EC50 was 1.7 µM in data set [1] and > 10 µM in data set [4]. The cytotoxic concentration (CC50) in data set [2] and in data set [3] was > 10 µM each time.
`C#Cc1cccc(Nc2ncnc3cc(OC)c(OC)cc23)c1F`: the EC50 in data set [1] was > 10 µM; in data set [4] it was 10 µM. Moreover, the CC50 in data set [2] and in data set [3] was > 10 µM in each case.
As to `COc1cccc(Nc2ccnc3cc(OC)c(OC)cc23)c1`, the EC50 in data set [1] amounted to 5.9 µM; in data set [4] it was 4.8 µM. In addition, the 50% cytotoxic concentration (CC50) in data set [2] and in data set [3] was > 10 µM in each case.
Take `C#Cc1ccc(F)c(Nc2ncnc3cc(OC)c(OC)cc23)c1`: the EC50 in data set [1] was determined as 9 µM; in data set [4], 7.8 µM. For the same molecule, the half-maximal cytotoxic concentration (CC50) in data set [2] and in data set [3] was > 10 µM in each case.
For the molecule `C#Cc1cccc(Nc2c(C#N)cnc3ccc(OC)cc23)c1`, the EC50 in data set [1] was 8.9 µM; in data set [4], > 10 µM. Besides, the CC50 in data set [2] and in data set [3] was > 10 µM each time.
`C#Cc1cccc(Nc2ncnc3cc(OC)ccc23)c1`: the EC50 in data set [1] and in data set [4] was > 10 µM throughout. In addition, the CC50 in data set [2] and in data set [3] was > 10 µM throughout.
In the case of `C#Cc1cc(Nc2ncnc3cc(I)ccc23)ccc1F`, the EC50 in data set [1] and in data set [4] was > 10 µM in each case. In addition, the 50% cytotoxic concentration (CC50) in data set [2] and in data set [3] was > 10 µM throughout.
For the molecule `C#Cc1cccc(Nc2c(C#N)cnc3cc(OC)ccc23)c1`, the EC50 was 7.8 µM in data set [1] and > 10 µM in data set [4]. Also, the CC50 in data set [2] and in data set [3] was > 10 µM each time.
Turning to `C#Cc1cccc(Nc2ncnc3ccc(OC)cc23)c1`, the EC50 in data set [1] is 9.7 µM; in data set [4] it was 8 µM. For the same molecule, the CC50 in data set [2] and in data set [3] was > 10 µM in each case.
`COc1cc2nccc(Nc3cccc(C(C)=O)c3)c2cc1OC`: the EC50 amounted to 4.8 µM in data set [1] and 1.3 µM in data set [4]. Also, the CC50 in data set [2] and in data set [3] was > 10 µM in each case.
On to `C#Cc1cc(Nc2ncnc3ccc(I)cc23)ccc1F`, for which the EC50 in data set [1] was 5 µM; in data set [4], > 10 µM. Moreover, the CC50 in data set [2] and in data set [3] was > 10 µM in each case.
Consider `C#Cc1cc(Nc2ncnc3cc(C#N)ccc23)ccc1F`, for which the EC50 was > 10 µM in data set [1] and 3.9 µM in data set [4]. Also, the CC50 in data set [2] and in data set [3] was > 10 µM in each case.
Consider `C#Cc1cc(Nc2ncnc3cc(OC)c(OC)cc23)ccc1F`, for which the EC50 in data set [1] was found to be 7.6 µM; in data set [4], 0.6 µM. The CC50 in data set [2] and in data set [3] was > 10 µM in each case.
Turning to `COc1cc2nccc(Nc3cccc(Br)c3)c2cc1OC`, the EC50 in data set [1] worked out at 9.8 µM; in data set [4] it was 4.8 µM. Further, the CC50 in data set [2] and in data set [3] was > 10 µM each time.
